In paper PMC10951066, “The self-reactive FVIII T cell repertoire in healthy individuals relies on a short set of epitopes and public clonotypes” (Frontiers in Immunology, 2024):

Columns and labels:
[1] = tested on: CD4 T cells from healthy donors; test: Large-scale CD4 T cell epitope mapping by IFN-γ ELISPOT (16 donors); format: cell-based, human; details: for Donor coverage ( %): of 16 donors; for responding donors: of 16 healthy donors, individual peptide 10 µg/ml; for response intensity ( %): percentage of 872 FVIII-specific T cell lines
Text: PBMCs were purified from the whole blood of anonymous healthy donors, who gave informed consent (Etablissement Français du Sang, Rungis, France), using Ficoll-Paque®. Monocyte-derived dendritic cells (DCs) were produced from cells isolated using Percoll gradient by 5 days of culture in AIM-V medium (Invitrogen, Villebon-sur-Yvette, France) supplemented with 1,000 U/ml recombinant human (rh) IL-4 and rhGM-CSF (both from R&D Systems, Lille, France). Mature DCs were produced by two supplementary days of culture in the presence of LPS (1 µg/ml) and R848 (10µg/ml). CD4 T cells were isolated from autologous PBMCs by positive selection using magnetic labeling with anti-CD4 mAbs conjugated to magnetic microbeads followed by magnetic cell sorting, as recommended by the manufacturer (Miltenyi Biotec, Bergisch Gladbach, Germany). Immature DCs were loaded overnight at 37 °C with either 0.2 µM of rFVIII, 0.2 µM of ovalbumin, or 0.25 µM of KLH in 96-well U-bottom plates, while mature DCs were used for FVIII peptides (10 ug/ml). CD4 T cell lines were generated in vitro in IMDM (Invitrogen) supplemented with 10% human serum, 0.24 mM glutamine, 0.55 mM asparagine, 1.5 mM arginine (all amino acids from Sigma-Aldrich), 50 U/mL penicillin/50 μg/mL of streptomycin (Invitrogen), 20 IU/mL human IL-2, and 17 IU/ml human IL-7 (premium-grade; Miltenyi Biotec) by three once-per-week rounds of stimulation of CD4 T cells (200,000 per well) with autologous DCs (20,000 per well). 10,000 lymphocytes were collected at day 19 from each T cell line (expanded T cells contained in one well) and their specificity was assessed by using IFN-g ELISPOT.
The T cell lines and APCs were plated at equal number for both stimulated and unstimulated control conditions. […] The spot number was determined by using the ELISPOT Reader System (Autoimmun Diagnostika, Ebinger, Germany). HLA restriction was assessed using monoclonal antibodies (10 μg/ml) specific to HLA-DP (B7/21), HLA-DQ (SPVL3), or HLA-DR (L243).
Based on the T cell epitope prediction software NetMHCpan4.0 ([23]), we selected 63 20-mer peptides that are predicted for their ability to bind promiscuously, with a percentile score below 10%, at least four HLA class II molecules from a selection of 15 preponderant HLA-DR alleles in our panel (as shown in ST1). […] A total of 16 healthy donors with unrelated HLA typing (ST2) were used as sources of T cells to identify FVIII-specific CD4 T cell epitopes. Specific T cell lines were generated by in vitro T cell culture using FVIII and KLH. The peptide specificity of the T cell lines raised against FVIII was assessed by two independent IFN-γ ELISPOT using peptide pools and individual peptides. […] Furthermore, four independent healthy donors were used as sources of T cells to characterize the HLA restriction and to assess the reactivity of T cell lines generated with the 18 peptides toward rFVIII. T cell lines were amplified in vitro for 28 days through stimulation with the pool of 18 peptides and then tested through IFN-γ ELISPOT.

HLA-DRB1*0401 = HLA-DRB1*0401 (Homo sapiens, UniProt P01903+P01911, A100K/A169T/F76Y/I96L/K127E/L162R/M171V/N62H/P40V/Q125Y/R42H/S133A/S149N/S66Y/V115G/V209L/W38E); test: Peptide-MHCII competition binding assay; details: competition ELISA, pH 5.9, peptide 90.000nM – 0.9nM, HLA-DRB1 30 nM, biotinylated peptide 15nM, duplicate wells; ratios below 10 = good binding; reference peptide […]
Procedure: (§1) Quantitative peptide-MHCII competition binding assays were carried out to determine binding avidities of the 18 20-mer FVIII peptides to 6 HLA-DRB1. Data are presented as ratio between reference peptide IC50/FVIII-peptide IC50 tested. Briefly, non-biotinylated FVIII peptides have been diluted at a concentration of 20 mM in DMSO. 10-µl aliquots of serially diluted (90.000nM – 0.9nM in n-Octyl b-D-Glucopyranoside, 2.5 mg/ml in 1x phosphate buffer, pH 5.9) of non-biotinylated FVIII peptides, were added to duplicate wells of 96-well polypropylene plates. Serially diluted non-FVIII reference peptides known to bind to the specific HLA-DRB1 were added to separate wells as positive controls. Next, the biotinylated peptide at a concentration of 2mM was use to prepare 1000-fold pre-dilution to reach a final concentration of 15nM. The HLA-DRB1 proteins were diluted to 30 nM in n-Octyl β-D-Glucopyranoside, 2.5 mg/ml in 1x phosphate buffer, pH 5.9. […] SA-HRP (diluted 5000x in 1xPBS 0.1% Tween20) was added to each well. The plates were covered and incubated at room temperature for 60 min […] and washed. TMB (100 μl/well) was then added, and the plates were incubated at room temperature for 15-30 min. ELISA stopping solution (0.5M H2SO4) was added and then read on a FLUOstar OPTIMA fluorometer. Sigmoidal binding curves were simulated and IC50 values calculated for the FVIII peptides, based on their competition with the reference peptides for each HLA-DRB1. Data were reported as the ratio between the values of the tested peptide and of the reference peptide. Ratios below 10 correspond to good biding affinity.

HLA-DRB1*0701 = HLA-DRB1*0701 (Homo sapiens, UniProt P01903+P01911, A100R/A102G/A103Q/D57E/D86V/E43K/F76Y/K127E/L162R/M171V/P40G/Q125H/Q99D/R33Q/R42Y/R54Q/S133A/S66F/T210M/V115G/Y107V/Y59L/Y89S); test: Peptide-MHCII competition binding assay; details: competition ELISA, pH 5.9, peptide 90.000nM – 0.9nM, HLA-DRB1 30 nM, biotinylated peptide 15nM, duplicate wells; ratios below 10 = good binding; reference peptide PVDLHAFLSQAVFS
Procedure: as §1

HLA-DRB1*1101 = HLA-DRB1*1101 (Homo sapiens, UniProt P01903+P01911, A100R/A169T/A87E/I96F/K41T/L162R/M171V/P40S/Q125H/Q178H/Q39Y/Q99D/R42S/S66Y/T262R/V115G/W38E); test: Peptide-MHCII competition binding assay; details: competition ELISA, pH 5.9, peptide 90.000nM – 0.9nM, HLA-DRB1 30 nM, biotinylated peptide 15nM, duplicate wells; ratios below 10 = good binding; reference peptide […]
Procedure: as §1

HLA-DRB1*0101 = HLA-DRB1*0101 (Homo sapiens, UniProt P01903+P01911, A100R/D57E/F55L/F60I/F76Y/I96L/L162R/M171V/P40L/Q125E/R42F/V115G/Y59C); test: Peptide-MHCII competition binding assay; details: competition ELISA, pH 5.9, peptide 90.000nM – 0.9nM, HLA-DRB1 30 nM, biotinylated peptide 15nM, duplicate wells; ratios below 10 = good binding; reference peptide […]
Procedure: as §1

HLA-DRB1*0301 = HLA-DRB1*0301 (Homo sapiens, UniProt P01903+P01911, A100K/A102G/A103R/A169T/F55Y/I96L/K41T/L162R/M171V/P40S/Q125H/Q178H/Q39Y/R42S/S66N/T106N/T262R/W38E/Y61H); test: Peptide-MHCII competition binding assay; details: competition ELISA, pH 5.9, peptide 90.000nM – 0.9nM, HLA-DRB1 30 nM, biotinylated peptide 15nM, duplicate wells; ratios below 10 = good binding; reference peptide SFLLTDLINRRTPRVDGQ
Procedure: as §1

HLA-DRB1*1501 = HLA-DRB1*1501 (Homo sapiens, UniProt P01903+P01911); test: Peptide-MHCII competition binding assay; details: competition ELISA, pH 5.9, peptide 90.000nM – 0.9nM, HLA-DRB1 30 nM, biotinylated peptide 15nM, duplicate wells; ratios below 10 = good binding; reference peptide ENPVVHFFKNIVTPR
Procedure: as §1

## GHTFLVRNHRQASLEISPIT [P292-311, 20-mer FVIII peptide, A1 domain]
[1]; across all 16 donors
  nb positive T cell lines: 26
[1]; cumulative over peptides ranked by donor coverage
  cumulative donor coverage (%): 81%
[1]
  Donor coverage ( %): 75%
  responding donors: 12
  response intensity ( %): 2,98%
HLA-DRB1*0401
  Ratio IC50 DRB1*0401: 22.5
HLA-DRB1*0701
  Ratio IC50 DRB1*0701: 1
HLA-DRB1*1101
  Ratio IC50 DRB1*1101: 0.05
HLA-DRB1*0101
  Ratio IC50 DRB1*0101: 34
HLA-DRB1*0301
  Ratio IC50 DRB1*0301: 72

## TQGVKSLLTSMYVKEFLISS [P2264-2283, 20-mer FVIII peptide, C2 domain]
[1]
  Donor coverage ( %): 50%
  responding donors: 8
  response intensity ( %): 1,72%
HLA-DRB1*0401
  Ratio IC50 DRB1*0401: 5.5
HLA-DRB1*1501
  Ratio IC50 DRB1*1501: 480
HLA-DRB1*0701
  Ratio IC50 DRB1*0701: 0.05
HLA-DRB1*1101
  Ratio IC50 DRB1*1101: 0.05
HLA-DRB1*0101
  Ratio IC50 DRB1*0101: 6242
HLA-DRB1*0301
  Ratio IC50 DRB1*0301: 17
